From patent US8188053B2, “Anti-inflammatory peptides” (The University of Manchester, priority 2005, dated 2012)
“Also recorded” adds a separate entry of the source.

How the values were obtained:
Type in all cases: in vivo
[1] = system: allergen (oxazolone) induced Langerhans Cell (LC) migration; experiment: allergen (oxazolone) induced Langerhans Cell (LC) migration after prior topical application of peptide; settings: for biological activity (epidermal LC migration), equimolar comparison: equimolar doses (1.38 μM): 0.5 μg hTRX, 0.04 μg 9-mer, 0.025 μg KMIKP, 0.016 μg CGPC; for inhibition of allergen-induced LC migration: prior topical exposure to peptide, subsequent oxazolone at the same site
Procedure: Various tissue studies are conducted to examine the effect of each of the aforementioned polypeptides on allergen (oxazolone) induced Langerhans Cell (LC) migration. Applications are in μg unless otherwise stated.
The purpose of this experiment is to determine whether topical application of peptide 1 is able to influence the integrity of LC migration induced by subsequent exposure at the same site to oxazolone, a potent contact allergen known to cause the mobilization of LC. The results of a representative experiment are illustrated in FIG. 1.
The purpose of this experiment is to determine whether topical application of peptide 3 is able to influence the integrity of LC migration induced by subsequent exposure at the same site to oxazolone. The results of three independent experiments are illustrated in FIG. 2. […] The conclusion drawn is that topically applied peptide 3 is able to inhibit one or more biological processes required for the effective mobilization and migration of LC in response to a stimulus, in this instance the contact allergen oxazolone.

[2] = system: Langerhans Cell migration induced by IL-1β; experiment: Langerhans Cell migration provoked by intradermal administration of homologous IL-1β after prior topical peptide; settings: prior topical exposure; id administration of homologous IL-1β
From the text: (§1) The purpose of this experiment is to investigate whether the 9-mer peptide (CGPCKMIKP; SEQ ID NO: 9) could affect Langerhans Cell migration induced by either IL-1β or TNF-α. The results of a representative experiment are illustrated in FIG. 9. […] The interpretation is that topical administration of the 9-mer peptide is associated with a perturbation of IL-1β function.

[3] = system: Langerhans Cell migration induced by TNF-α; experiment: Langerhans Cell migration induced by intradermal injection of homologous TNF-α after prior topical peptide; settings: prior topical exposure; intradermal (id) injection of homologous TNF-α
From the text: as §1

Molecule: CGPC [reference compound]
- biological activity (epidermal LC migration), equimolar comparison [1]: all but the CGPC (SEQ ID NO: 22) peptide appear to exhibit biological activity

Molecule: ANKEKLEATINELV [peptide 7]
- inhibition of allergen-induced LC migration [1]: does not inhibit

Molecule: CGPCKMIKPFFHSLSEKYSN [peptide 3]
- inhibition of allergen-induced LC migration at the highest concentration tested ([1]; highest concentration (0.5 μg) tested, three independent experiments, oxazolone): complete (or near complete) inhibition
- inhibition of allergen-induced LC migration [1]: some indication for a dose-related inhibition; also recorded: substantial inhibition; also recorded: active
- variation in activity between peptide synthesis batches ([1]; two independent preparations of peptide 3, oxazolone-induced LC migration): only a small variation in activity

Molecule: KMIKP
- biological activity (epidermal LC migration), equimolar comparison [1]: appear to exhibit biological activity

Molecule: IPCMPKCKG [scrambled 9-mer, reference compound]
- inhibition of allergen-induced LC migration [1]: not biologically active

Molecule: SATYCGPCKMIKP [peptide RV-1]
- inhibition of allergen-induced LC migration [1]: does inhibit; also recorded: active

Molecule: CGPCKMIKP [9-mer peptide]
- influence on Langerhans Cell migration provoked by IL-1β [2]: without influence
- biological activity (epidermal LC migration), equimolar comparison [1]: appear to exhibit biological activity
- inhibition of allergen-induced LC migration [1]: activity of the 9-mer peptide at all doses tested; also recorded: active
- inhibition of allergen-induced LC migration ([1]; listed as 9-mer): active
- inhibition of Langerhans Cell migration induced by TNF-α [3]: almost complete inhibition

Molecule: VKQIESKTAFQEALDAAGDK [peptide 1]
- inhibition of allergen-induced LC migration [1]: does not inhibit

Molecule: KMIMP
- inhibition of allergen-induced LC migration [1]: active

Molecule: AGPAKMIKP [cysteine free 9-mer peptide]
- inhibition of allergen-induced LC migration [1]: active

B1: hTRX: Recombinant human thioredoxin (SEQ ID NO. 14), from which the peptides of the invention are derived (protein, listed as Homo sapiens)
chain: MVKQIESKTAFQEALDAAGDKLVVVDFSATWCGPCKMIKPFFHSLSEKYSNVIFLEVDVDDCQDVASECEVKCMPTFQFFKKGQKVGEFSGANKEKLEATINELV
- biological activity (epidermal LC migration), equimolar comparison [1]: appear to exhibit biological activity
